# Legend:
# αS fibrils [1] = target: T1, αS fibrils (Homo sapiens, UniProt P37840); test: Fluorescence spectra with αS fibrils; format: binding; settings: for Stokes shift: difference between λex and λem; for λem: PFF 50 μM; for turn on of fluorescence in the presence of αS PFFs: in vitro generated αS PFFs; for λem, maximum emission wavelength: bound dye; for Stokes shift in the presence of PFFs / emission peaks / emission maxima in the presence of PFFs: αS PFFs
# T1 construct: intein-His6 (C, cleaved yes); made in house; host or cells: Escherichia coli BL21
# Protocol: Fluorescence measurements were performed using a PTI QuantaMaster™ 40 fluorescence spectrometer. Fluorescence spectra of 10 μM probes (concentrated stock solution prepared as 10 mM in DMSO) (7b, 7c, 7d, 7e, 7f, 7g and 7h) in PBS buffer were measured by excitation at their absorbance maximum wavelength in the absence and presence of 50 μM αS fibrils (stock solution 100 μM αS fibrils in PBS buffer).
# Fluorescence spectra with αS fibrils. Fluorescence measurements were performed using a PTI QuantaMaster 40 fluorescence spectrometer. Fluorescence spectra of 10 μM probes (concentrated stock solution prepared as 10 mM in DMSO) (5b-5f and 5h) in PBS buffer were measured by excitation at their absorbance maximum wavelength in the absence and presence of 50 μM αS fibrils (stock solution 100 μM αS fibrils in PBS buffer). […] FIGS. 77A-77F show fluorescence spectra of probes (5b-5f and 5h) with and without αS fibrils. Final concentrations of probes and αS fibrils were 10 μM and 50 μM, respectively. Emission spectra collected at each dye's maximum absorption wavelength. Ex/Em slit widths: 3 nm/3 nm. […] Absorbance is shown in FIG. 78A and FIG. 78B, whereas FIG. 78C and FIG. 78D show excitation spectra of probes 5j and 5k with and without αS fibrils. Final probe and fibrils concentrations were 10 μM and 50 μM, respectively. […] Emission wavelengths were 575 nm for 5j, 580 nm for 5k. Ex/Em slit widths: 3 nm/3 nm. […] Black line indicates incident light (αS fibrils without probe) and blue line indicates sample (αS fibrils with probe). Excitation at λexc=435 nm for 5j and λexc=463 nm for 5k and spectral collection (400-800 nm). Final concentrations of the probe and αS fibrils are the 100 μM. Ex/Em slit widths: 5 nm/5 nm.
# αS fibrils [2] = target: T1, αS fibrils; test: Fluorescence lifetime measurements of probes with αS fibrils; format: physicochemical; settings: for Fluorescence Lifetime: 100 μM dye and PFFs; for Lifetime: with αS fibrils in PBS buffer, probe and αS fibrils 100 μM; for fluorescence lifetime when bound to PFFs: 100 μM αS PFFs
# Protocol: TCSPC measurements of fluorescence lifetime decays for 100 μM dyes in the presence of 100 μM αS fibrils were collected with the PTI Quantamaster™ 40 using a pulsed LED with a maximum emission at 486 nm. Fluorescence emission was collected at the indicated wavelength for each dye with 20 nm slit widths. The IRF was collected under identical conditions. Data analysis was performed with FluoFit software using an exponential decay model.
# αS fibrils [3] = target: T1, αS fibrils; test: Fluorescent QY measurements with αS fibrils; format: physicochemical; settings: for Relative Brightness: ratio of ε•QY in the presence and absence of PFFs; for increase in QY with αS fibrils: presence versus absence of αS fibrils; for increase in brightness in the presence of PFFs: αS PFFs
# Protocol: (§1) For each QY measurement, the incident excitation light spectrum was collected with 100 μL of probes (100 μM) in PBS buffer. After measuring the incident light intensity, probes (7j-7m) were added to the αS fibrils (100 μM) from a concentrated stock solution (10 mM in DMSO) to a final concentration of 100 μM and the new spectrum (fluorescence intensity and new incident light intensity) was collected. Using the JASCO Quantum Yield Software, the dye QY was calculated by dividing the dye fluorescence intensity by the difference in incident light intensity in the presence and absence of fibrils.
# as §1, with “[…]” for “μL”, “(5j and 5k)” for “(7j-7m)”
# αS monomer = target: T2, αS monomer (Homo sapiens, UniProt P37840); test: Fluorescence with αS monomer (with and without TMAO); format: binding; settings: for fluorescence turn on with αS monomer: varied probe or protein concentration; for λmax (λem): 10 μM probe, αS monomer 50 μM, excitation 418 nm
# T2 construct: intein-His6 (C, cleaved yes); made in house; host or cells: Escherichia coli BL21
# Protocol: A 1 mM stock solution of 5k in DMSO and a 6.5 M stock solution of trimethylamine N-oxide (TMAO) in Tris buffer at pH 7.4 were prepared. From these stocks, the fluorescence measurements of probe 5k (10 μM) were carried out with and without αS monomer (50 μM) at different concentrations of TMAO (2 M, 4 M and 6 M) diluted with the Tris buffer. The solutions were mixed and then the spectra were measured using a Photon Technology International (PTI) QuantaMaste 40 fluorescence spectrometer with excitation at 418 nm.
# αS fibrils [4] = target: T1, αS fibrils; test: Absorbance spectra with αS fibrils; format: physicochemical; settings: for λabs / λabs, maximum absorption wavelength: dye 10 μM; for ε / E, molar absorptivity (ε): measured at λabs; for λabs, maximum absorption wavelength / E, molar absorptivity (ε): presence of αS PFFs (+); for λabs, maximum absorption wavelength: PFFs 50 μM, mixture of bound and unbound dye; for increase in molar absorptivity with αS fibrils: presence versus absence of αS fibrils
# Protocol: (§2) Absorption measurements were performed using Thermo Scientific Genesys 150 UV Vis spectrometer. Absorption spectra of 10 μM probes (concentrated stock solution prepared as 10 mM in DMSO) (7j, 7k, 7l, and 7m) in PBS buffer were measured in the absence and presence of 50 μM αS fibrils (stock solution 100 μM αS fibrils in PBS buffer).
# as §2, with “(5j” for “(7j, 7k, 7l,”, “5k)” for “7m)”
# [5] = Fluorescence (emission) measurements; format: physicochemical; settings: for Emission λem: Table S12; for maximum emission wavelength (λem): 50:50 ACN/PBS, excitation at λabs;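 on all read-outs here: fluorescence emission spectra recorded on a spectrofluorometer, with each compound excited at its own absorption maximum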
# Protocol: The fluorescence spectrum of each derivative (150 μL) was measured on a Photon Technology International (PTI) QuantaMaster™ 40 fluorescence spectrometer by excitation at the maximum absorption wavelength for each compound.
# The fluorescence spectrum of each derivative (150 μL) was measured on a Photon Technology International (PTJ) QuantaMaster™ 40 fluorescence spectrometer by excitation at the maximum absorption wavelength for each compound.
# [6] = test system: αS fibrils versus Aβ1-42 fibrils; test: Amyloid selectivity by plate reader, αS versus Aβ1-42 fibrils; format: binding; parameters: fluorescence turn-on with αS relative to Aβ1-42: dose or concentration left out as unconfirmed; settings: for fluorescence turn on with αS relative to Aβ1-42: 5 μM fibril concentrations, probe 1 μM
# Protocol: Experiments were performed on the Tecan Spark in Greiner 96 well flat black ½ area plates using the following parameters: excitation and emission band widths 5 nm, lag time 0 μs, integration time 40 μs. A 10 mM DMSO stock solution of probes (7j-7m) and 100 μM stock of αS fibrils were used in the study described herein.
# [7] = presence of αS PFFs, 100 μM dye and PFFs
# [8] = 25 μM in ACN/PBS buffer (1:1 v/v), pH 7.4
# [9] = presence of αS PFFs (+), dye 10 μM, PFFs 50 μM
# [10] = presence of αS PFFs (+), 100 μM dye and PFFs
# [11] = λex/λem = 435/575 nm for 5j and 463/580 nm for 5k
Stokes shift (αS fibrils [1]; presence of αS PFFs) [nm],"λem (αS fibrils [1]; presence of αS PFFs, dye 10 μM) [nm]",Fluorescence Lifetime (αS fibrils [2]; presence of αS PFFs) [ns],Lifetime (αS fibrils [2]) [ns],"Fluorescence QY (αS fibrils [3]; absence of αS PFFs, 100 μM dye) [%]",Fluorescence QY (αS fibrils [3]; [7]) [%],Relative Brightness (αS fibrils [3]),λabs (αS fibrils [4]; absence of αS PFFs) [nm],ε (αS fibrils [4]; absence of αS PFFs) [M⁻¹ cm⁻¹],"λabs (αS fibrils [4]; presence of αS PFFs, PFF 50 μM) [nm]",ε (αS fibrils [4]; presence of αS PFFs) [M⁻¹ cm⁻¹],Emission λmax ([5]; 25 μM in ACN) [nm],"Emission λmax [5, 8] [nm]",Stokes shift ([5]; ACN/PBS buffer (1:1 v/v)) [nm],Stokes shift ([5]; in ACN) [nm],Stokes shift (αS fibrils [1]; [9]) [nm],maximum emission wavelength (λem) [5] [nm],Compound,fluorescence turn on with αS monomer (αS monomer),fluorescence turn on with αS relative to Aβ1-42 [6] [fold],turn on of fluorescence in the presence of αS PFFs (αS fibrils [1]),further results
146,570,2.09,2.09 ± 0.01,0.21,29.2,403,370,17205,356,49869,565,603,217,187,–,–,"Cc1c(C)n2c(/C=C/c3ccc(N4CCOCC4)cc3)c(C)c(=O)n2c1=O [Compound 7k, (E)-2,3,6-trimethyl-5-(4-morpholinostyryl)-1H,7H-pyrazolo[1,2-a]pyrazole-1,7-dione]",no significant fluorescence turn on signal,13,–,–
140,575,1.90,1.90 ± 0.01,0.17,20.7,364,372,15385,359,45956,540,583,198,162,140,583,"Cc1c(C)n2c(/C=C/c3ccc(N)cc3)c(C)c(=O)n2c1=O [Compound 7j, (E)-3-(4-aminostyryl)-2,5,6-trimethyl-1H,7H-pyrazolo[1,2-a]pyrazole-1,7-dione]",–,–,significant turn-on of orange fluorescence,"λem, maximum emission wavelength (αS fibrils [1]; [9]): 575 nm; Stokes shift in the presence of PFFs (αS fibrils [1]): 140 nm; emission peaks / emission maxima in the presence of PFFs (αS fibrils [1]; listed as 5j): 575 nm; fluorescence lifetime when bound to PFFs (αS fibrils [2]): 1.90 ns; Fluorescence Lifetime (αS fibrils [2]; presence of αS PFFs (+)): 1.90 ns; Fluorescence QY (αS fibrils [3]; [10]): 20.7%; increase in QY with αS fibrils (αS fibrils [3]): 122 fold; Relative Brightness (αS fibrils [3]; [11]): 364; increase in brightness in the presence of PFFs (αS fibrils [3]): 364 fold; λabs, maximum absorption wavelength (αS fibrils [4]): 359 nm; E, molar absorptivity (ε) (αS fibrils [4]): 45956 M⁻¹ cm⁻¹; increase in molar absorptivity with αS fibrils (αS fibrils [4]): 3 fold; Emission λem ([5]; 25 μM in ACN): 540 nm"
117,580,2.27,2.27 ± 0.01,0.15,32.7,476,393,20071,386,43864,568,604,186,166,117,604,"Cc1c(C)n2c(/C=C/c3ccc(N(C)C)cc3)c(C)c(=O)n2c1=O [Compound 7l, (E)-3-(4-(dimethylamino)styryl)-2,5,6-trimethyl-1H,7H-pyrazolo[1,2-a]pyrazole-1,7-dione]","occurs only with αS fibrils, not monomers",5,significant turn-on of orange fluorescence,"emission maximum bound to αS (αS fibrils [1]): 584 nm; λem, maximum emission wavelength (αS fibrils [1]; [9]): 580 nm; Stokes shift in the presence of PFFs (αS fibrils [1]): 117 nm; emission peaks / emission maxima in the presence of PFFs (αS fibrils [1]): 580 nm; fluorescence lifetime when bound to PFFs (αS fibrils [2]): 2.27 ns; Fluorescence Lifetime (αS fibrils [2]; presence of αS PFFs (+)): 2.27 ns; Fluorescence QY (αS fibrils [3]; [10]): 32.7%; increase in QY with αS fibrils (αS fibrils [3]): 218 fold; Relative Brightness (αS fibrils [3]; [11]): 476; increase in brightness in the presence of PFFs (αS fibrils [3]): 476 fold; λmax (λem) (αS monomer; 2 M TMAO): 567 nm; λmax (λem) (αS monomer; 4 M TMAO): 566 nm; λmax (λem) (αS monomer; 6 M TMAO): 560 nm; λabs, maximum absorption wavelength (αS fibrils [4]): 386 nm; E, molar absorptivity (ε) (αS fibrils [4]): 43864 M⁻¹ cm⁻¹; increase in molar absorptivity with αS fibrils (αS fibrils [4]): 2.2 fold; Emission λem ([5]; 25 μM in ACN): 568 nm; fluorescence turn-on with αS relative to Aβ1-42 [6]: 5.2 fold"
136,620,1.27,1.27 ± 0.01,0.20,27.9,383,416,19024,412,52234,620,640,204,210,–,640,"Cc1c(C)n2c(/C=C/C=C/c3ccc(N(C)C)cc3)c(C)c(=O)n2c1=O [Compound 7m, 3-((1E,3E)-4-(4-(dimethylamino)phenyl)buta-1,3-dien-1-yl)-2,5,6-trimethyl-1H,7H-pyrazolo[1,2-a]pyrazole-1,7-dione]",–,15,–,concentration-dependent shift in the emission maximum with αS fibrils (αS fibrils [1]): binding at multiple sites; Stokes shift ([5]; ACN/PBS): 204 nm

# From patent publication US20240336617A1, “Substituted Bimane Compounds and Methods of Use Thereof” (THE TRUSTEES OF THE UNIVERSITY OF PENNSYLVANIA, priority 2023, published 2024)
